The source of these data is patent US5639773A, “Ocular hypotensive agent” (priority 1993, dated 1997).

The subject of data set [1] is Japanese albino rabbits. Kind of data set: Action for lowering intraocular pressure in Japanese albino rabbits (Pneumatonograph). The data set is classed as in vivo, rabbit. The note with it: for Intraocular Pressure 30 minutes after instillation / Intraocular Pressure before instillation: 50 μl; for Intraocular Pressure 30 minutes after instillation / Intraocular Pressure before instillation / Intraocular Pressure difference: n=5; for Intraocular Pressure before instillation: baseline; for Intraocular Pressure difference: 30 minutes after vs before instillation. On the procedure: (§1) The action for lowering intraocular pressure in rabbits
(§2) Male Japanese albino and pigmented rabbits having no anterior ocular abnormalities were used. One eye received 50 μl of the test drug, the other eye 50 μl of physiological saline as a control. Changes over time in ocular tension were measured. Ocular tension was measured for both eyes using a Pneumatonograph (produced by Alcon) before and 30 minutes and/or 1 hour after instillation. The test drug was (±)-1-(cyclohexyloxycarbonyloxy)ethyl 2-ethoxy-1-[[2'-(1H-tetrazol-5-yl)biphenyl-4-yl]methyl]-1H-benzimidazole-7-carboxylate (hereinafter referred to as Compound 1) as suspended in physiological saline or 0.1 w/v % polysorbate 80 to concentrations of 0.1, 0.5 and 1.0 w/v %. Also performed periodically were macroscopic observation of the anterior ocular segment and measurement of pupil diameter.

The test system of data set [2] is pigmented rabbits. Kind of data set: Action for lowering intraocular pressure in pigmented rabbits (Pneumatonograph). The note with it: for Intraocular Pressure 1 hour after instillation / Intraocular Pressure 30 minutes after instillation / Intraocular Pressure before instillation: 50 μl; for Intraocular Pressure before instillation: baseline; for ocular tension (result in words): suspended in 0.1 w/v % polysorbate 80. Type of data set: in vivo, rabbit. The protocol: as §1, §2

Data set [3] deals with Japanese albino rabbits. The note with it: rabbit, in vivo. On the procedure: as §2
Data set [4] deals with anterior ocular segment of rabbits. The settings on record: rabbit, in vivo. On the procedure: as §2
Data set [5] relates to pigmented rabbits. The settings on record: rabbit, in vivo. The protocol: as §2
Data set [6] has as its system anterior ocular segment of rabbits. The settings on record: rabbit, in vivo. The protocol: as §2
This is another data set of the same source.

The nature of data set [7]: Acute toxicity test, mice. The note with it: mouse, in vivo; single oral administration, 4-week-old Jcl:ICR mice (males, females). On the procedure:
(§3) The LD50 of compound 1 exceeded 2,000 mg/kg, as of single oral administration, in 4-week-old Jcl:ICR mice (males, females) and 5-week-old Jcl:Wistar rats (males, females).

Data set [8] is described as follows: Acute toxicity test, rats. The note with it: rat, in vivo; single oral administration, 5-week-old Jcl:Wistar rats (males, females). On the procedure:
as §3

Where [9] appears, read: 0.1 w/v %, suspended in physiological saline.
The mark [10] stands for this setting: 0.5 w/v %, suspended in physiological saline.
[11] abbreviates: 0.1 w/v %, suspended in 0.1 w/v % polysorbate 80, n=6.
The mark [12] stands for this setting: 1.0 w/v %, suspended in 0.1 w/v % polysorbate 80, n=7.

Where two headings read alike, the source gives them in different places.

Consider `CCOc1nc2cccc(C(=O)OC(C)OC(=O)OC3CCCCC3)c2n1Cc1ccc(-c2ccccc2-c2nnn[nH]2)cc1` (racemic) [Compound 1, (±)-1-(cyclohexyloxycarbonyloxy)ethyl 2-ethoxy-1-[[2'-(1H-tetrazol-5-yl)biphenyl-4-yl]methyl]-1H-benzimidazole-7-carboxylate], for which the “Intraocular Pressure 30 minutes after instillation” value is listed as 16.3 ± 1.16 mmHg in data set [1] (setting [9]); 16.0 ± 0.76 mmHg in data set [1] (setting [10]); 15.0 ± 0.47 mmHg in data set [1] (1.0 w/v %, suspended in physiological saline, *p < 0.05 vs before instillation); 22.0 ± 0.39 mmHg in data set [2] (0.1 w/v %, suspended in 0.1 w/v % polysorbate 80, n=6, *p < 0.05 vs before instillation); 21.9 ± 0.81 mmHg in data set [2] (setting [12]). Moreover, the “Intraocular Pressure before instillation” value in data set [1] (setting [9]) is 17.8 ± 0.80 mmHg; in data set [1] (setting [10]), 18.2 ± 0.60 mmHg; in data set [1] (1.0 w/v %, suspended in physiological saline), 18.7 ± 0.44 mmHg; in data set [2] (setting [11]) it was 24.3 ± 0.25 mmHg; in data set [2] (setting [12]) it was 24.0 ± 0.29 mmHg. Moreover, the “Intraocular Pressure difference” value in data set [1] (0.1 w/v %) is on record as -1.5 mmHg; in data set [1] (0.5 w/v %), -2.2 mmHg; in data set [1] (1.0 w/v %), -3.7 mmHg. In addition, the “ocular tension (result in words)” value was “fell dose-dependently” in data set [1] (by 30 minutes after instillation, 0.1, 0.5 and 1.0 w/v %, suspended in physiological saline); “fell greatly” in data set [2] (0.1 w/v %, 30 minutes after instillation); “fell greatly” in data set [2] (1.0 w/v %, one hour after instillation). The “Intraocular Pressure 1 hour after instillation” value is 23.6 ± 0.33 mmHg in data set [2] (setting [11]) and 21.4 ± 0.43 mmHg in data set [2] (1.0 w/v %, suspended in 0.1 w/v % polysorbate 80, n=7, **p < 0.001 vs before instillation). The “change in pupil diameter” value in data set [3] and in data set [5] was “Nor was there any change in pupil diameter” throughout. Further, the “macroscopic abnormalities in the anterior ocular segment” value in data set [4] and in data set [6] was “no macroscopic abnormalities were noted” each time. The 50% lethal dose (LD50) in data set [7] and in data set [8] was > 2000 mg/kg each time.
